In the supplement of paper PMC4862054:
“And” between values parts separate entries of the source, which are not always exact repeats. Equal entries are not always repeated.

What was measured:
Conditions in all cases: incubation time: 72 h
[1] = system: CAL-51; assay: normalised viability (% of control), CellTiter-Blue; higher = more viable cells (about 100 = DMSO control)
Method in brief: (§1)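 Vehicle (100) and a positive kill control (0) anchored the normalisation of each plate, and Z'-factor was used for quality control. Breast cancer cell lines in 20 µl suspension were incubated 72 h over compound in 5 µl medium in 384-well plates, followed by CellTiter-Blue at 560/590 nm. The value is normalised viability at a single listed concentration of the series.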

[2] = system: CAL-120; assay: as above
Method in brief: as §1

[3] = system: MDA-MB-231; assay: as above
Method in brief: as §1

[4] = system: MDA-MB-468; assay: as above
Method in brief: as §1

[5] = system: HDQ-P1; assay: as above
Method in brief: as §1

[6] = system: MDA-MB-453; assay: as above
Method in brief: as §1

[7] = system: BT-474; assay: as above
Method in brief: as §1

[8] = system: MFM-223; assay: as above
Method in brief: as §1

[9] = system: MDA-MB-436; assay: as above
Method in brief: as §1

[10] = system: CAL-148; assay: as above
Method in brief: as §1

[11] = system: Hs578T; assay: as above
Method in brief: as §1

[12] = system: DU-4475; assay: as above
Method in brief: as §1

[13] = system: CAL-85-1; assay: as above
Method in brief: as §1

[14] = system: BT-549; assay: as above
Method in brief: as §1

[15] = system: CAL-51; assay: drug sensitivity score (DSS), CellTiter-Glo (DSS (AUC-based score)); higher = stronger drug effect (viability inhibition or cytotoxicity); extreme values may be limits of the assay
Method in brief: (§2)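 The area under the fitted dose-response curve was used to calculate the drug sensitivity score. Cells from breast cancer lines were incubated for 72 h in 384-well plates with compound at 5 concentrations spaced 10-fold over a 10,000-fold range specific to each compound. Plates were read for CellTox Green and then CellTiter-Glo, and normalised to 0.1 % DMSO and a positive kill control.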

[16] = system: CAL-120; assay: as above
Method in brief: as §2

[17] = system: HCC1143; assay: as above
Method in brief: as §2

[18] = system: BT-474; assay: as above
Method in brief: as §2

[19] = system: MFM-223; assay: as above
Method in brief: as §2

[20] = system: HCC1937; assay: as above
Method in brief: as §2

[21] = system: CAL-148; assay: as above
Method in brief: as §2

[22] = system: MCF-10A; assay: as above
Method in brief: as §2

[23] = system: Hs578T; assay: as above
Method in brief: as §2

[24] = system: CAL-85-1; assay: as above
Method in brief: as §2

O=c1[nH]cc(F)c(=O)[nH]1 [Fluorouracil]
normalised viability [%]
Conditions	3 nM	10 nM	30 nM	100 nM	1000 nM	10000 nM
[1]	105	–	100	92.9	–	–
[2]	–	114	–	–	95.8	54.9
[3]	–	104	–	–	97.5	64.7
[4]	–	99.4	–	–	103	76
[5]	105	–	114	99.9	–	–
[6]	113	–	106	99.1	–	–
[7]	–	108	–	–	108	94
[8]	–	106	–	–	98.5	94.3
[9]	–	103	–	–	87.8	73.5
[10]	111	–	109	103	–	–
[11]	–	111	–	–	106	55.6
[12]	120	–	103	85.6	–	–
[13]	105	–	101	115	–	–
[14]	–	101	–	–	90.3	74.2

Conditions	drug sensitivity score
[15]	0
[16]	0
[17]	0
[18]	0
[19]	0
[20]	0
[21]	0
[22]	0
[23]	0
[24]	8.63

C[C@@H]1C=C2C(=O)O[C@@H]3CC[C@H](C1)[C@]23O [Galiellalactone]
normalised viability [%]
Conditions	15 nM	50 nM	150 nM	500 nM	5000 nM	50000 nM
[1]	108	–	104	102	–	–
[2]	–	88.6	–	–	89.9	83.8
[3]	–	100	–	–	61.4	7.78
[4]	–	101	–	–	80.4	33.6
[5]	108	–	96	116	–	–
[6]	114	–	91.2	98.4	–	–
[7]	–	131	–	–	98.9	27.4
[8]	–	90.6	–	–	95.5	40.4
[9]	–	98.2	–	–	76.6	21.9
[10]	99.7	–	108	103	–	–
[11]	–	121	–	–	115	50.9
[12]	103	–	92.2	95.5	–	–
[13]	95.8	–	90.5	108	–	–
[14]	–	83.9	–	–	59.9	7.58

Conditions	drug sensitivity score
[15]	4.43
[16]	0
[17]	0
[18]	0
[19]	0
[20]	0
[21]	0
[22]	0
[23]	0
[24]	1.79

COC1=C2C[C@@H](C)C[C@H](OC)[C@H](O)[C@@H](C)/C=C(\C)[C@H](OC(N)=O)[C@@H](OC)/C=C\C=C(/C)C(=O)NC(=CC1=O)C2=O [Geldanamycin]
normalised viability [%]
Conditions	3 nM	10 nM	30 nM	100 nM	1000 nM	10000 nM
[1]	109	–	100	95.4	–	–
[2]	–	91	–	–	13.6	6.18
[3]	–	102	–	–	15.3	4.86
[4]	–	99	–	–	11.2	8.18
[5]	124	–	104	44.8	–	–
[6]	121	–	97.3	51.3	–	–
[7]	–	127	–	–	18.5	16.4
[8]	–	103	–	–	17.7	8.14
[9]	–	107	–	–	15.7	16.9
[10]	102	–	110	108	–	–
[11]	–	122	–	–	31.1	17.2
[12]	106	–	113	73.2	–	–
[13]	104	–	87.4	99.2	–	–
[14]	–	89.7	–	–	18	15.9

Conditions	drug sensitivity score
[15]	5.12
[16]	2.21
[17]	2.36
[18]	4.34
[19]	11.3
[20]	5.93
[21]	1.87
[22]	3.98
[23]	3.07
[24]	6

CS(=O)(=O)CCNCc1ccc(-c2ccc3ncnc(Nc4ccc(OCc5cccc(F)c5)c(Cl)c4)c3c2)o1 [Lapatinib]
Conditions	normalised viability
[1], 3 nM	122% and 101%
[1], 30 nM	117% and 97.8%
[1], 100 nM	112% and 102%
[2], 10 nM	92.4% and 99.8%
[2], 1000 nM	92% and 102%
[3], 1000 nM	85.8% and 109%
[3], 10000 nM	52.9% and 52.4%
[4], 10 nM	100% and 105%
[4], 1000 nM	64.2% and 68.2%
[4], 10000 nM	11.8% and 16.3%
[5], 100 nM	87.1% and 110%
[6], 3 nM	100% and 118%
[6], 30 nM	72.4% and 85.8%
[6], 100 nM	59.9% and 59%
[7], 10 nM	97.6% and 106%
[7], 1000 nM	37.3% and 43.9%
[7], 10000 nM	8.89% and 18.7%
[8], 10 nM	92.8% and 95.8%
[8], 1000 nM	95.8% and 96.9%
[8], 10000 nM	49.5% and 66%
[9], 10 nM	92.8% and 106%
[9], 1000 nM	91.3% and 112%
[9], 10000 nM	22.6% and 43.3%
[10], 3 nM	92.2% and 89.8%
[10], 30 nM	89.5% and 93.5%
[10], 100 nM	89.3% and 83.7%
[11], 1000 nM	93.5% and 95.4%
[11], 10000 nM	24.9% and 33.1%
[12], 3 nM	104% and 85.5%
[12], 30 nM	97.9% and 96.2%
[12], 100 nM	95.9% and 91.3%
[13], 3 nM	97.7% and 91.7%
[13], 30 nM	90.3% and 92.4%
[13], 100 nM	94.6% and 91.4%
[14], 10 nM	74.6% and 99.6%
[14], 1000 nM	86.5% and 103%
[14], 10000 nM	14.1% and 20.7%

Conditions	drug sensitivity score
[15]	0
[16]	0
[17]	0
[18]	0
[19]	0
[20]	0
[21]	0
[22]	4.31
[23]	0
[24]	1.7

Cn1cnc2c(F)c(Nc3ccc(Br)cc3F)c(C(=O)NOCCO)cc21 [MEK-162]
normalised viability [%]
Conditions	0.3 nM	1 nM	3 nM	10 nM	100 nM	1000 nM
[1]	112	–	104	100	–	–
[2]	–	98.1	–	–	93.8	93.4
[3]	–	104	–	–	80.3	47
[4]	–	107	–	–	99.5	75.2
[5]	110	–	105	113	–	–
[6]	115	–	94	110	–	–
[7]	–	119	–	–	115	119
[8]	–	90.8	–	–	89.4	94.5
[9]	–	114	–	–	76.4	99.6
[10]	94	–	91	97.2	–	–
[11]	–	126	–	–	102	97
[12]	100	–	94	78.1	–	–
[13]	94.6	–	95.1	99.1	–	–
[14]	–	100	–	–	110	108

Conditions	drug sensitivity score
[15]	0
[16]	0.188
[17]	0
[18]	2.42
[19]	0
[20]	0
[21]	0
[22]	13.3
[23]	0
[24]	0

CCOc1cc2ncc(C#N)c(Nc3ccc(OCc4ccccn4)c(Cl)c3)c2cc1NC(=O)/C=C/CN(C)C [Neratinib]
normalised viability [%]
Conditions	0.3 nM	1 nM	3 nM	10 nM	100 nM	1000 nM
[1]	92	–	90.5	93	–	–
[2]	–	95.7	–	–	76	82.7
[3]	–	114	–	–	131	135
[4]	–	110	–	–	114	106
[5]	123	–	115	106	–	–
[6]	106	–	99	88.3	–	–
[7]	–	105	–	–	120	91.2
[8]	–	99.2	–	–	87.7	91.6
[9]	–	104	–	–	108	110
[10]	86.6	–	78.6	93.9	–	–
[11]	–	98.6	–	–	88.5	93.9
[12]	103	–	95.4	101	–	–
[13]	92.7	–	100	97.1	–	–
[14]	–	93.7	–	–	82	93.8

Conditions	drug sensitivity score
[15]	1.09
[16]	1.19
[17]	0
[18]	0
[19]	0.624
[20]	0
[21]	2.61
[22]	11
[23]	0
[24]	7.08

COc1ccc(C2=N[C@@H](c3ccc(Cl)cc3)[C@@H](c3ccc(Cl)cc3)N2C(=O)N2CCNC(=O)C2)c(OC(C)C)c1 [Nutlin-3]
normalised viability [%]
Conditions	3 nM	10 nM	30 nM	100 nM	1000 nM	10000 nM
[1]	101	–	98.6	97.5	–	–
[2]	–	82.8	–	–	85.2	96.6
[3]	–	102	–	–	97.7	104
[4]	–	104	–	–	104	90.1
[5]	107	–	112	107	–	–
[6]	104	–	92	99.8	–	–
[7]	–	120	–	–	114	90.3
[8]	–	87.5	–	–	83.2	81.6
[9]	–	108	–	–	82.3	110
[10]	86	–	89.8	95.6	–	–
[11]	–	105	–	–	117	100
[12]	85.7	–	90.3	87.4	–	–
[13]	84.5	–	78.5	90.4	–	–
[14]	–	91.3	–	–	98.4	103

Conditions	drug sensitivity score
[15]	10.8
[16]	0
[17]	0
[18]	0
[19]	0
[20]	0
[21]	0.553
[22]	0
[23]	0
[24]	0

COC1=CC(c2cc3ccccc3[nH]2)=N/C1=C\c1[nH]c(C)cc1C [Obatoclax]
normalised viability [%]
Conditions	3 nM	10 nM	30 nM	100 nM	1000 nM	10000 nM
[1]	107	–	101	101	–	–
[2]	–	75.5	–	–	9.72	8.54
[3]	–	77	–	–	11.4	3.22
[4]	–	85	–	–	29.5	31.7
[5]	85.3	–	94.9	68.8	–	–
[6]	101	–	77.9	74.3	–	–
[7]	–	92.6	–	–	36.1	33.4
[8]	–	72.7	–	–	54.4	25.6
[9]	–	76.7	–	–	38.2	21.5
[10]	84.7	–	87.9	87.2	–	–
[11]	–	96.7	–	–	27.1	22.1
[12]	86.3	–	73.7	88.2	–	–
[13]	81.2	–	77.7	79.5	–	–
[14]	–	78.7	–	–	30.3	17.7

Conditions	drug sensitivity score
[15]	4.52
[16]	0
[17]	0
[18]	7.09
[19]	0
[20]	7.4
[21]	0
[22]	0
[23]	0
[24]	4.01
